Assay results: ChEMBL document CHEMBL1128891, “Synthesis of indane derivatives as mechanism-based inhibitors of dopamine -hydroxylase” (Bioorg Med Chem Lett, 1995)

Columns and labels:
[1] = Ratio of kinetic constant k inact to KI was determined
[2] = molecular target: T1, Dopamine beta-hydroxylase (Bos taurus, UniProt P15101); assay: Kinetic constant for inhibition (KI) of Dopamine beta-Hydroxylase (DBH) from bovine adrenal medulla; assay type: tissue-based
T1 sequence (P15101 whole entry): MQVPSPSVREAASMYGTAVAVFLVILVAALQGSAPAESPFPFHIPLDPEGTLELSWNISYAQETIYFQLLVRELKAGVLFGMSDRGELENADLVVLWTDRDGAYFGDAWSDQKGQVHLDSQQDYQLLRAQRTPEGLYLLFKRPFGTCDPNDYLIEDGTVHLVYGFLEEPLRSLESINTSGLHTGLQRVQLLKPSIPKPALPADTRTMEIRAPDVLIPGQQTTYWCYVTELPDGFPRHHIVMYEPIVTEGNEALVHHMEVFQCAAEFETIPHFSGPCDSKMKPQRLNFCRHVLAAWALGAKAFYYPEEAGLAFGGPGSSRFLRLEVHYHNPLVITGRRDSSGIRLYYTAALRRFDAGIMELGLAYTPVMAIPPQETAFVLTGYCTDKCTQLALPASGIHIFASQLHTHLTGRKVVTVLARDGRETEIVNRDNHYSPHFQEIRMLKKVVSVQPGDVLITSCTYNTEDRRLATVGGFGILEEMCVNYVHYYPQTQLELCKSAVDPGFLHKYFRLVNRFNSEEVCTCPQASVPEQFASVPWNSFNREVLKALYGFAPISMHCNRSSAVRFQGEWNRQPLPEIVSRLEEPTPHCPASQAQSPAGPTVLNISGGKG

[3] = molecular target: T2, Dopamine beta-hydroxylase (Bos taurus) (UniProt P15101); assay: Kinetic constant for inactivation (k inact) of Dopamine beta-Hydroxylase (DBH) from bovine adrenal medulla; assay type: tissue-based
T2 sequence (whole entry): T1 sequence (P15101 whole entry)

Work on COc1ccc2c(c1)C1NC1C2 (configuration not stated) yielded a Ratio [1] of 70 M⁻¹ min⁻¹, a Ki [2] of 400 µM and a K inact [3] of 0.03 min⁻¹.

COc1ccc(CC2CC2)cc1 showed a Ratio [1] of 75 M⁻¹ min⁻¹, a Ki [2] of 240 µM and a K inact [3] of 0.018 min⁻¹.

In the case of COc1ccc2c(c1)C1OC1C2 (configuration not stated), the Ratio [1] is reported as 110 M⁻¹ min⁻¹, the Ki [2] is reported as 650 µM and the K inact [3] is reported as 0.07 min⁻¹.

With Oc1cc2c(cc1O)C1CC1C2 (configuration not stated) the Ratio [1] was 1180 M⁻¹ min⁻¹, the Ki [2] was 109 µM and the K inact [3] was 0.129 min⁻¹.

Molecule Oc1ccc2c(c1)C1CC1C2 (configuration not stated) has a Ratio [1] of 1530 M⁻¹ min⁻¹, a Ki [2] of 150 µM and a K inact [3] of 0.23 min⁻¹.

Work on c1ccc2c(c1)CC1OC21 (configuration not stated) yielded a Ratio [1] of 70 M⁻¹ min⁻¹, a Ki [2] of 1060 µM and a K inact [3] of 0.08 min⁻¹.

Work on Oc1ccc(CC2CC2)cc1 yielded a Ratio [1] of 150 M⁻¹ min⁻¹ and a Ki [2] of 12000 µM.

In the case of c1c2c(cc3c1OCO3)C1CC1C2 (configuration not stated), the Ratio [1] is reported as 370 M⁻¹ min⁻¹, the Ki [2] is reported as 160 µM and the K inact [3] is reported as 0.06 min⁻¹.

Work on c1ccc2c(c1)CC1CC21 (configuration not stated) yielded a Ratio [1] of 70 M⁻¹ min⁻¹, a Ki [2] of 3030 µM and a K inact [3] of 0.2 min⁻¹.

Work on c1c2c(cc3c1OCO3)C1OC1C2 (configuration not stated) yielded a Ratio [1] of 60 M⁻¹ min⁻¹, a Ki [2] of 1010 µM and a K inact [3] of 0.06 min⁻¹.

Molecule COc1ccc2c(c1)C1CC1C2 (configuration not stated) has a Ratio [1] of 100 M⁻¹ min⁻¹, a Ki [2] of 1120 µM and a K inact [3] of 0.11 min⁻¹.
